Article PMC10224444, “Novel Perspectives on the Design and Development of a Long-Acting Subcutaneous Raltegravir Injection for Treatment of HIV—In Vitro and In Vivo Evaluation” (Pharmaceutics, 2023)

Key:
[1] = design: method as in PMID 33979164; settings: cited from earlier work
[2] = design: method as in PMID 33979164; settings: cited from earlier work; remark: listed apart in the source
[3] = design: method as in PMID 33979164; settings: pH 7.0, over 5 h; cited from earlier work
[4] = design: method as in PMID 36678931; settings: pH 6.5, over 6 d; cited from earlier work
[5] = Pharmacokinetic study after single SC injection in BALB/c mice; type: in vivo; settings: mouse, in vivo, single SC 30 mg/kg
Experimental: The pharmacokinetic profile of prodrug 25 was evaluated in mice, in a study undertaken at WuXi AppTec. Prodrug 25 was dissolved in a sterile vehicle of DMSO/Solutol HS15/water (10:10:80) to give a clear solution with a final concentration of 6 mg/mL. The same procedure was used to prepare a 6 mg/mL solution of RAL as a control. Six male BALB/c mice were used, each weighing 18–25 g and aged between 7–9 weeks (three per group). A single 30 mg/kg dose of prodrug 25 was administered to each animal in the treatment group (subcutaneously, in the thoracic region). Similarly, RAL (30 mg/kg) was administered to each animal in the control group. Blood samples were taken at the time points indicated below, up to the experiment endpoint (96 h).
For each animal, blood samples (30 μL each) were collected from the submandibular or saphenous vein over a period of 96 h, at the following time points: zero/pre-dose; then 0.25, 0.5, 1, 2, 3, 4, 5, 6, 24, 48, and 96 h. All samples were transferred into pre-chilled commercial K2EDTA tubes and placed on wet ice until processing for plasma, which was obtained by centrifugation at 4 °C and 3200× g for 10 min, within 30 min of sampling. The plasma samples were transferred to polypropylene tubes, snap-frozen on dry ice, and kept at −70 ± 10 °C until LC-MS/MS analysis.
An LC-MS/MS method was developed to measure the concentrations of prodrug 25 and RAL in the biological matrix. Two mobile phases were used: mobile phase A (0.025% NH4OH and 2 mM NH4OAc in 95:5 v/v water/MeCN) and mobile phase B (0.025% NH4OH and 2 mM NH4OAc in 5:95 v/v water/MeCN). A UPLC method was performed using an LC-MS/MS-BM Triple Quad 6500 plus system with an ACQUITY UPLC BEH C18 1.7 μm column (2.1 × 50 mm) at a flow rate of 0.65 mL/min. The assay time was 2.5 min, and the solvent B composition was as follows: 10–100% (0.2–1.4 min), 30% (1.41–1.7 min), 95% (2.0–2.4 min), and 10% (2.41–2.5 min). The retention times for the prodrug, RAL and the internal standards (tolbutamide and verapamil) were 0.76, 1.04, 0.66, and 0.97 min, respectively. Quantification was performed by monitoring the transition of m/z 835.3 [M+H]^+ to 457.2 for prodrug 25, representing the cyclisation of the linker with the amidic RAL such as in side-product 22; whereas for RAL, the transition m/z 445.2 [M+H]^+ to 361.2 was followed, representing the loss of the 2-methyl-1,3,4-oxadiazole moiety as the main fragmentation pathway. For the internal standards, the m/z transition from 455.2 [M+H]^+ to 164.9 was used for verapamil (corresponding to formation of the verapamil fragment [CH2CH2-(3,4-dimethoxy phenyl)]^+), and for tolbutamide, the transition of m/z of 271.1 [M+H]^+ to 155.1 was used, representing formation of the [CH3-Ph-SO2]^+ fragment. […] The method was linear over the measured standard concentrations for 25 and RAL. The mean plasma concentration was determined for 25 and RAL (as metabolite or control) at each sampling time point. Pharmacokinetic parameters were then calculated by non-compartmental analysis of plasma concentration/time profiles using the Phoenix WinNonlin 6.3 software. The computed parameters were as follows: peak plasma concentration (Cmax); the time over which the initial concentration is reduced to half (t½); area under the plasma concentration versus time curve from time zero to 96 h (AUC 0–96 h); and mean residence time from time zero to 96 h (MRT 0–96 h).
Since in vitro models are not fully predictive of in vivo pharmacokinetics, especially for prodrugs, assessment of these characteristics still relies on in vivo studies. Therefore, the pharmacokinetic profile of prodrug 25 was evaluated in mice. Compound 25 and the control (RAL) were dissolved in DMSO/Solutol HS15/water (10:10:80). For a single SC injection of 25 (30 mg/kg) in BALB/c mice (n = 3), the plasma concentrations of prodrug and released RAL were measured at the following time points: zero/pre-dose; then 0.25, 0.5, 1, 2, 3, 4, 5, 6, 24, 48, and 96 h. […]

[6] = design: method as in PMID 23515248; settings: cited from earlier work
[7] = design: method as in PMID 18321239; settings: cited from earlier work
[8] = plasma level of the dosed compound, male BALB/c mice, n = 3

In the case of `CNCCCOC(=O)OCOc1c(-c2ccc(Oc3ccc(OC(F)(F)F)cc3)cc2F)c(C)nc2cc(OC)c(Cl)cc12` [Compound 2], the “aqueous solubility compared with the parent compound” value [1] is given as “enhanced”, the “oral bioavailability compared with the parent compound” value [2] is given as “enhanced” and the “payload released over 5 h” value [3] is given as greater than 55%.
For `C#CCCCNCCCCOC(=O)OCOc1ccc(N)cc1C(=O)O` [Compound 4], the “release of mesalamine over 6 d” value [4] is given as 92%.
For `Cc1nnc(C(=O)NC(C)(C)c2nc(C(=O)NCc3ccc(F)cc3)c(O)c(=O)n2C)o1` [RAL, raltegravir], the concentration at 6 h ([5]; male, RAL control, BALB/c mice, 6 h, read-out: plasma concentration remaining after 6 h) was 10.7 ng/mL, the Cmax [5, 8] was 6230 ng/mL and the Tmax [5, 8] was 19.8 min. For the same compound, the AUC(0-t) ([5]; plasma level of the dosed compound, male BALB/c mice, n = 3, read-out: AUC 0–96 h) was 9890 ng·h/mL, the half-life ([5]; plasma level of the dosed compound, male BALB/c mice, n = 3, read-out: t½ (converted)) was 45.6 min and the pKa [6] was 6.7. The “half-life (t½)” value [7] was 420 to 720 min.
